# Measurements from patent publication US8592161B2, “Mutational profiles in HIV-1 protease correlated with phenotypic drug resistance” (Janssen R&D Ireland, priority 2002, dated 2013).
# pEC50: −log10 of the molar value.
# Tested on: HIV-1/LAI strain selected with Comp 1 (200 nM, 328 days), protease S37N R41S K70E
# Experiment: In vitro antiviral activity in acutely infected MT4 cells, selected strain
# Type: cell-based
# Conditions: Human immunodeficiency virus 1, Table 2, strain S37N R41S K70E (Comp 1 200 nM, 328 days), read-out: median EC50
# Experimental: (§1) Determination of the antiviral activity of a compound was done as described in Pauwels R. et al. (J Virol Methods 1988; 20(4):309-21). Various concentrations of the test compounds were brought into each well of a flat-bottom microtiter plate. Subsequently, HIV and MT4 cells were added to a final concentration of 200-250 50% cell culture infectious doses (CCID50)/well and 30,000 cells/well, respectively. After 5 days of incubation (37° C., 5% CO2), the cytopathic effect of the replicating virus was determined by the tetrazolium colorimetric MTT method. The dose protecting 50% of the cells from virus cytopathic effect was defined as the EC50, while the dose achieving 90% protection was defined as the EC90.
# (§2) MT4-LTR-EGFP cells were infected at a multiplicity of infection (MOI) of 0.01 to 0.001 CCID50/cell in the presence of inhibitor. The starting concentration of the inhibitor was two to tee times the EC50, a suboptimal concentration. The cultures were sub-cultivated and scored microscopically on virus-induced fluorescence and cytopathicity every 3-4 days. The cultures were sub-cultivated in the presence of the same compound concentration until signs of virus replication were observed. The escaping virus was further cultivated in the presence of the same inhibitor concentration in order to enrich the population in resistant variants. If full virus breakthrough was observed the supernatant was collected and stored (new virus strain). Afterwards, the same virus was challenged with a higher compound concentration in order to select variants able to grow in the presence of as high as possible inhibitor concentrations. From the new viruses, a virus stock was grown in the absence of inhibitor.
# (§3) In vitro drug selection experiments starting from wild-type HIV-1 under pressure of compound 1, compound 2, and Nelfinavir (NFV) have been performed. Tables 1, 2, 3, 4, and 5 show the genotypic and phenotypic characterization of the selected strains.
row,SMILES,pEC50
1,Cc1c(O)cccc1C(=O)N[C@@H](CSc1ccccc1)[C@H](O)CN1C[C@H]2CCCC[C@H]2C[C@H]1C(=O)NC(C)(C)C [Nelfinavir],8.72

# Same assay, conditions: Table 2, strain S37N R41S K70E (Comp 1 200 nM, 328 days)
row,SMILES,median FC (fold change in EC50 as compared to wild type)
1,Cc1c(O)cccc1C(=O)N[C@@H](CSc1ccccc1)[C@H](O)CN1C[C@H]2CCCC[C@H]2C[C@H]1C(=O)NC(C)(C)C [Nelfinavir],0.1

# Tested on: HIV-1/LAI strain selected with Comp 1 (30 nM, 70 days), protease K70E
# Experiment: as above
# Type: cell-based
# Conditions: Human immunodeficiency virus 1, Table 2, strain K70E (Comp 1 30 nM, 70 days), read-out: median EC50
# Experimental: as §1, §2, §3
row,SMILES,pEC50
1,Cc1c(O)cccc1C(=O)N[C@@H](CSc1ccccc1)[C@H](O)CN1C[C@H]2CCCC[C@H]2C[C@H]1C(=O)NC(C)(C)C [Nelfinavir],7.41

# Same assay, conditions: Table 2, strain K70E (Comp 1 30 nM, 70 days)
row,SMILES,median FC (fold change in EC50 as compared to wild type)
1,Cc1c(O)cccc1C(=O)N[C@@H](CSc1ccccc1)[C@H](O)CN1C[C@H]2CCCC[C@H]2C[C@H]1C(=O)NC(C)(C)C [Nelfinavir],1

# Tested on: HIV-1/LAI strain selected with Compound 1 (100 nM, 188 days), protease R41T K70E
# Experiment: as above
# Type: cell-based
# Conditions: Human immunodeficiency virus 1, Table 1, strain R41T K70E (Compound 1 100 nM, 188 days), read-out: median EC50
# Experimental: as §1, §2, §3
row,SMILES,pEC50
1,Cc1c(O)cccc1C(=O)N[C@@H](CSc1ccccc1)[C@H](O)CN1C[C@H]2CCCC[C@H]2C[C@H]1C(=O)NC(C)(C)C [Nelfinavir],7.43

# Same assay, conditions: Table 1, strain R41T K70E (Compound 1 100 nM, 188 days)
row,SMILES,median FC (fold change in EC50 as compared to wild type)
1,Cc1c(O)cccc1C(=O)N[C@@H](CSc1ccccc1)[C@H](O)CN1C[C@H]2CCCC[C@H]2C[C@H]1C(=O)NC(C)(C)C [Nelfinavir],1

# Tested on: HIV-1/LAI strain selected with Compound 1 (30 nM, 45 days), protease R41T
# Experiment: as above
# Type: cell-based
# Conditions: Human immunodeficiency virus 1, Table 1, strain R41T (Compound 1 30 nM, 45 days), read-out: median EC50
# Experimental: as §1, §2, §3
row,SMILES,pEC50
1,Cc1c(O)cccc1C(=O)N[C@@H](CSc1ccccc1)[C@H](O)CN1C[C@H]2CCCC[C@H]2C[C@H]1C(=O)NC(C)(C)C [Nelfinavir],7.49

# Same assay, conditions: Table 1, strain R41T (Compound 1 30 nM, 45 days)
row,SMILES,median FC (fold change in EC50 as compared to wild type)
1,Cc1c(O)cccc1C(=O)N[C@@H](CSc1ccccc1)[C@H](O)CN1C[C@H]2CCCC[C@H]2C[C@H]1C(=O)NC(C)(C)C [Nelfinavir],1

# Tested on: HIV-1/LAI strain selected with Compound 2 (100 nM), protease R41I; Table 3
# Experiment: as above
# Type: cell-based
# Conditions: Human immunodeficiency virus 1, R41I strain selected with Compound 2 100 nM (head lists 116, 200, 264 days; assignment unclear), read-out: median EC50
# Experimental: as §1, §2, §3
row,SMILES,pEC50
1,Cc1c(O)cccc1C(=O)N[C@@H](CSc1ccccc1)[C@H](O)CN1C[C@H]2CCCC[C@H]2C[C@H]1C(=O)NC(C)(C)C [Nelfinavir],7.80

# Tested on: HIV-1/LAI strain selected with NFV (1000 nM, 35 days), protease D30N M46I
# Experiment: as above
# Type: cell-based
# Conditions: Human immunodeficiency virus 1, Table 5, strain D30N M46I (NFV 1000 nM, 35 days), read-out: median EC50
# Experimental: as §1, §2, §3
row,SMILES,pEC50
1,Cc1c(O)cccc1C(=O)N[C@@H](CSc1ccccc1)[C@H](O)CN1C[C@H]2CCCC[C@H]2C[C@H]1C(=O)NC(C)(C)C [Nelfinavir],6.48

# Same assay, conditions: Table 5, strain D30N M46I (NFV 1000 nM, 35 days)
row,SMILES,median FC (fold change in EC50 as compared to wild type)
1,Cc1c(O)cccc1C(=O)N[C@@H](CSc1ccccc1)[C@H](O)CN1C[C@H]2CCCC[C@H]2C[C@H]1C(=O)NC(C)(C)C [Nelfinavir],9

# Tested on: HIV-1/LAI strain selected with NFV (9000 nM, 11l days), protease L10F D30N R41R/K K45I/K M46I V77I I84V/I I85V/I N88D
# Experiment: as above
# Type: cell-based
# Conditions: Human immunodeficiency virus 1, Table 5, strain L10F D30N R41R/K K45I/K M46I V77I I84V/I I85V/I N88D (NFV 9000 nM, 11l days), read-out: median EC50
# Experimental: as §1, §2, §3
row,SMILES,pEC50
1,Cc1c(O)cccc1C(=O)N[C@@H](CSc1ccccc1)[C@H](O)CN1C[C@H]2CCCC[C@H]2C[C@H]1C(=O)NC(C)(C)C [Nelfinavir],5.14

# Same assay, conditions: Table 5, strain L10F D30N R41R/K K45I/K M46I V77I I84V/I I85V/I N88D (NFV 9000 nM, 11l days)
row,SMILES,median FC (fold change in EC50 as compared to wild type)
1,Cc1c(O)cccc1C(=O)N[C@@H](CSc1ccccc1)[C@H](O)CN1C[C@H]2CCCC[C@H]2C[C@H]1C(=O)NC(C)(C)C [Nelfinavir],200

# Tested on: HIV-1/LAI strain selected with NFV (9000 nM, 140 days), protease L10F D30N R41R/K K45I/K M46I V77I I84V N88D
# Experiment: as above
# Type: cell-based
# Conditions: Human immunodeficiency virus 1, Table 5, strain L10F D30N R41R/K K45I/K M46I V77I I84V N88D (NFV 9000 nM, 140 days), read-out: median EC50
# Experimental: as §1, §2, §3
row,SMILES,pEC50
1,Cc1c(O)cccc1C(=O)N[C@@H](CSc1ccccc1)[C@H](O)CN1C[C@H]2CCCC[C@H]2C[C@H]1C(=O)NC(C)(C)C [Nelfinavir],5.17

# Same assay, conditions: Table 5, strain L10F D30N R41R/K K45I/K M46I V77I I84V N88D (NFV 9000 nM, 140 days)
row,SMILES,median FC (fold change in EC50 as compared to wild type)
1,Cc1c(O)cccc1C(=O)N[C@@H](CSc1ccccc1)[C@H](O)CN1C[C@H]2CCCC[C@H]2C[C@H]1C(=O)NC(C)(C)C [Nelfinavir],200
